SMILES strings stand for the structures.

Common to all, as to format: cell-based
Experiment [1] relates to proinflammatory cytokine production in induced THP-1 cells. The experiment in a line: induced THP-1. To be noted: at 10 μM.
The next experiment relates to leukemia cell line SR. The experiment is described as follows: NCI-DTP 60, SR. To be noted: read-out: IC50 (cytotoxic).
Experiment [2] has as its system IL-33 production in induced THP-1 cells. The experiment is described as follows: induced THP-1. The conditions noted are these: at 10 μM; THP-1 cells induced with LPS and TiO2.
In experiment [3] the test system is interleukin 6 (IL-6) production in induced THP-1 cells. The experiment is described as follows: induced THP-1.
Experiment [4] has as its system IL-1β production in induced THP-1 cells. The experiment in a line: induced THP-1. The conditions noted are these: abstract, no concentration given.
Experiment [5] deals with melanoma cell line LOX IMVI. The experiment in a line: NCI-DTP 60, LOX IMVI. The conditions noted are these: Homo sapiens, read-out: IC50 (cytotoxic).
For experiment [6], the system named is tumor necrosis factor-alpha (TNF-α) production in induced THP-1 cells. The experiment in a line: induced THP-1. To be noted: abstract, no concentration given.

Take `CCCCCCCCCC(=O)[C@@H]1C(=O)O[C@@]2(C)C(=O)C=C3C=C(C[C@H](C)O)OC=C3[C@@H]12` [Compound 1, berkchaetoazaphilone A]: in experiment [1], the “effect on proinflammatory cytokine production” value is reported as “no effect”.
By IC50 is commonly meant the concentration at which inhibition is half-maximal. Consider `CCCCCCCCCC(=O)[C@@]12O[C@@]13C1=COC(C[C@H](C)O)=CC1=CC(=O)[C@]3(C)OC2=O` [Compound 2, berkchaetoazaphilone B], for which the IC50 (in the experiment on leukemia cell line SR; in experiment [5]) was 10 µM each time. Besides, the “inhibition of production of IL-33” value in experiment [2] is reported as “completely inhibited”. Moreover, the “IL-6 production in the induced inflammasome assay” value in experiment [3] (abstract, no concentration given) is “inhibited”. Further, the “inhibition of production of interleukin 6 (IL-6)” value in experiment [3] (at 10 μM, THP-1 cells induced with LPS and TiO2) is on record as “completely inhibited”. In addition, the “IL-1β production in the induced inflammasome assay” value in experiment [4] is “inhibited”. Also, the “TNFα production in the induced inflammasome assay” value in experiment [6] is on record as “inhibited”.

These data come from publication PMC5156323 (Journal of natural products, 2015).
